Results on six compounds are retold here after patent publication US11884708B2, “Stapled peptide inhibitors of nemo as potential anti-inflammatory and anti-cancer drugs” (INSTITUT PASTEUR, priority 2015, dated 2024).

The nature of data set [1]: CD spectroscopy, α-helical content. The data set is classed as physicochemical. The settings on record: 50 μM peptide, phosphate buffer pH 7.0, UBI in TFE taken as 100%.
A short description of data set [2]: Temperature-induced denaturation followed by CD. Conditions: 30 μM or 300 μM, ΔCp ≈ 0; for Tm: thermal denaturation by CD; for ΔH: van't Hoff enthalpy change at Tm. The class given is physicochemical. On the procedure: Temperature-induced denaturation experiments were performed by measuring the ellipticity at 222 nm from 1° C. to 95° C. in 1° C. steps, at a rate of 1° C./min, with a 2 nm bandwidth. Thermodynamic parameters including the melting temperature (Tm) and the van't Hoff enthalpy change at the melting temperature (ΔHm) were determined by fitting the denaturation curves with the Gibbs-Helmholtz equation as described elsewhere, [10]. The heat capacity change (ΔCp) was assumed to be 0 as judged by ΔHm which yielded similar values within 10% at two independent peptide concentrations (30 and 300 μM). The ellipticity was converted to differential extinction coefficient Δε (M^−1·cm^−1) per residue taking into account the peptide concentration determined by amino acid analysis.
Thermal stability of the peptides was also investigated by performing thermal denaturation profiles followed by CD (FIGS. 1 C and D and Table III). […] Indeed, the helicity of UBI-Aib (49%) is only 1.16-fold increased at 1° C. compared to UBI (42%), while its melting temperature (Tm=−8° C.) is 2.25 times higher than that of UBI (Tm=−18° C.).

The target in a further data set is CC2-LZ domain of NEMO (Mus musculus, UniProt O88522). The experiment in a line: Fluorescence anisotropy/polarization binding assay. Conditions: for Kd: fixed peptide concentration 0.1 μM; for Binding affinity (FP) at 10 μM: fixed peptide concentration 10 μM. A general note: Polarisation of emitted light reports the rotation of a fluorescent probe.
Setting [3] is: read-out: Binding affinity (FP) at 0.1 μM.

Where two headings read alike, the source gives them in different places. Where a SMILES comes first, the peptide text is derived from it. Bridges are numbered along the chain shown (N, C = ends). [ ]: non-standard residue; d: D form. The star is where a group is joined. BODIPYFLEthylmaleimide = Cc1cc(C)n2c1C=C1C=CC(CCC(=O)NCCN3C(=O)CC(*)C3=O)=[N+]1[B-]2(F)F; R8 = C=CCCCCCC[C@@](C)(N)C(=O)O; S5 = C=CCCC[C@](C)(N)C(=O)O Where only a bound is given, the exact number is not on record here.

Sequence of CC2-LZ domain of NEMO (O88522 242-343 limits assumed): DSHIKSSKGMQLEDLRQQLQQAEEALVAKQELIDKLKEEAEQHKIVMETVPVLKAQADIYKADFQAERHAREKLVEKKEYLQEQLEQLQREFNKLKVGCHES
Protocol for CC2-LZ domain of NEMO: Measurements were performed on a Tecan infinite F500 equipped with polarizing filters and using excitation and emission wavelengths at 485 nm and 535 nm, respectively. Anisotropy data were calculated using the Magellan software version 6.5. Prior experiments, the mouse CC2-LZ was extensively dialyzed in binding buffer containing 20 mM HEPES pH 7.4, 100 mM NaCl, and 0.05% P20 detergent (v/v). All experiments were performed in a 384 well plate (vol 25 μl) at room temperature. The BODIPY®-labeled peptide concentrations were fixed at 0.1 or 10 μM whereas the CC2-LZ concentration varied from 0 to 100 μM. Reference calibrated at 22 mP, was based on the fluorescence of the peptide alone. Each experimental binding curve was determined from at least 10 independent concentration points. The G-factor was calculated as previously described in Agou et al. [7], with a value of 0.75, which was observed constant within 5% upon all titrations. For analysis, the blank value corresponding to the value of buffer alone, was subtracted from all titration data.
All NEMO peptides were conjugated to an extra N-terminal cysteine with the fluorophore BODIPY® or FITC to determine their binding affinity for the CC2-LZ domain of NEMO (also called NOA or UBAN) by fluorescence polarization. For each peptide titration, various concentration of the target ranging from 0 to 100 μM and a fixed concentration of peptide at 0.1 or 10 μM were used at 25° C. […] For these reasons, all further titration experiments were performed with a fixed peptide concentration of 0.1 μM unless otherwise indicated.

In the case of `CC(=O)N[C@@H](CSC1CC(=O)N(CCNC(=O)CCC2=[N+]3C(=Cc4c(C)cc(C)n4[B-]3(F)F)C=C2)C1=O)C(=O)N[C@@H](CCC(=O)O)C(=O)N[C@@H](CC(C)C)C(=O)N[C@@H](C)C(=O)N[C@@H](CCC(N)=O)C(=O)N[C@@H](CC(C)C)C(=O)N[C@@H](CCC(N)=O)C(=O)N[C@@H](C)C(=O)N[C@@H](CCC(=O)O)C(=O)N[C@@H](CC(C)C)C(=O)N[C@@H](CC(=O)O)C(=O)N[C@]1(C)CCCCCCC=CCCC[C@@](C)(C(=O)N[C@@H](CC(=O)O)C(=O)N[C@@H](CCCCN)C(=O)N[C@@H](CCC(N)=O)C(=O)N[C@@H](CCC(=O)O)C(=O)N[C@@H](CC(C)C)C(=O)N[C@@H](CCCNC(=N)N)C(=O)N[C@@H](CCCCN)C(=O)N[C@@H](CC(C)C)C(N)=O)NC(=O)[C@H](CCC(N)=O)NC(=O)[C@H](C(C)C)NC(=O)[C@H](C(C)C)NC(=O)[C@H](C)NC(=O)[C@H](CCC(N)=O)NC(=O)[C@H](C(C)C)NC1=O` (single isomer, unassigned) [Co-SAHN I307-A314 (B), ELAQLQAELDXVQAVVQXDKQELRKL, reference compound], in data set [1], the “α-helical content at 1° C.” value is reported as “B: 58%”. In data set [2], the ΔS result is reported as “B: −24 cal. mol^−1.K^−1”, the Tm stood at 32 ± 0.3 C° and the ΔH entry was “B: −7200 (cal. mol)^−1”. Moreover, the Kd at CC2-LZ domain of NEMO (setting [3]) was more than 800 µM.

`CC[C@H](C)[C@@H]1NC(=O)[C@](C)(NC(=O)[C@H](C)NC(=O)[C@H](CCC(N)=O)NC(=O)[C@H](C)NC(=O)[C@H](CCCCN)NC(=O)[C@H](CC(C)C)NC(=O)[C@H](CSC2CC(=O)N(CCNC(=O)CCC3=[N+]4C(=Cc5c(C)cc(C)n5[B-]4(F)F)C=C3)C2=O)NC(C)=O)CCCCCCC=CCCC[C@@](C)(C(=O)N[C@@H](C)C(=O)N[C@@H](CCC(=O)O)C(=O)N[C@@H](CCCNC(=N)N)C(=O)N[C@@H](Cc2c[nH]cn2)C(=O)N[C@@H](C)C(=O)N[C@@H](CCCNC(=N)N)C(=O)N[C@@H](CCC(=O)O)C(=O)N[C@@H](CCCCN)C(N)=O)NC(=O)[C@H](Cc2ccccc2)NC(=O)[C@H](CCCNC(=N)N)NC(=O)[C@H](C)NC(=O)[C@H](CCCCN)NC(=O)[C@H](Cc2ccc(O)cc2)NC1=O` (single isomer, unassigned) [UBI-SAHN D306-Q313 (B)]: in data set [1], the “α-helical content at 1° C.” value was “B: 76%”. Also, in data set [2], the ΔS entry is given as “B: −17 cal. mol^−1.K^−1”, the Tm worked out at 35 ± 0.3 C° and the ΔH entry is reported as “B: −5290 (cal. mol)^−1”. In addition, the “Binding affinity (FP) at 10 μM” value at CC2-LZ domain of NEMO is reported as “Very weak”.

Regarding `CC(=O)N[C@@H](CSC1CC(=O)N(CCNC(=O)CCC2=[N+]3C(=Cc4c(C)cc(C)n4[B-]3(F)F)C=C2)C1=O)C(=O)N[C@@H](CCC(=O)O)C(=O)N[C@@H](CC(C)C)C(=O)N[C@@H](C)C(=O)N[C@@H](CCC(N)=O)C(=O)N[C@@H](CC(C)C)C(=O)N[C@@H](CCC(N)=O)C(=O)N[C@@H](C)C(=O)N[C@@H](CCC(=O)O)C(=O)N[C@@H](CC(C)C)C(=O)N[C@@H](CC(=O)O)C(=O)N[C@]1(C)CCCCCCC=CCCC[C@@](C)(C(=O)N[C@@H](CC(=O)O)C(=O)N[C@@H](CCCCN)C(=O)N[C@@H](CCC(N)=O)C(=O)N[C@@H](CCC(=O)O)C(=O)N[C@@H](CC(C)C)C(=O)N[C@@H](CCCNC(=N)N)C(=O)N[C@@H](CCCCN)C(=O)N[C@@H](CC(C)C)C(N)=O)NC(=O)[C@H](CCC(N)=O)NC(=O)[C@H](C(C)C)NC(=O)[C@H](C(C)C)NC(=O)[C@H](C)NC(=O)[C@H](CCC(N)=O)NC(=O)[C@H](C(C)C)NC1=O` (single isomer, unassigned) [Co-SAHN I307-A314 (A), ELAQLQAELDXVQAVVQXDKQELRKL, reference compound], the “α-helical content at 1° C.” value in data set [1] is “A: 45% -”. Moreover, in data set [2], the ΔS result is reported as “A: −24 - cal. mol^−1.K^−1”, the Tm entry is “A: 21 - B: C°” and the ΔH entry was “A: −6970 - (cal. mol)^−1”. For the same compound, the Kd on CC2-LZ domain of NEMO (setting [3]) is more than 1850 µM.

Turning to `CC[C@H](C)[C@H](NC(=O)[C@H](CC(=O)O)NC(=O)[C@H](C)NC(=O)[C@H](CCC(N)=O)NC(=O)[C@H](C)NC(=O)[C@H](CCCCN)NC(=O)[C@H](CC(C)C)NC(=O)[C@H](CCCCN)NC(=O)[C@H](CCCCN)NC(=O)[C@H](Cc1c[nH]c2ccccc12)NC(=O)[C@H](CCCCN)NC(=O)[C@H](CCSC)NC(=O)[C@H](CCCNC(=N)N)NC(=O)[C@H](CCCNC(=N)N)NC(=O)[C@H](CC(N)=O)NC(=O)[C@H](CCC(N)=O)NC(=O)[C@H](Cc1ccccc1)NC(=O)[C@H](Cc1c[nH]c2ccccc12)NC(=O)[C@@H](NC(=O)[C@H](CCCCN)NC(=O)[C@@H](NC(=O)[C@H](CCC(N)=O)NC(=O)[C@H](CCCNC(=N)N)NC(=O)[C@H](CSC1CC(=O)N(CCNC(=O)CCC2=[N+]3C(=Cc4c(C)cc(C)n4[B-]3(F)F)C=C2)C1=O)NC(C)=O)[C@@H](C)CC)[C@@H](C)CC)C(=O)N[C@@H](Cc1ccc(O)cc1)C(=O)N[C@@H](CCCCN)C(=O)N[C@@]1(C)CCCC=CCCC[C@@](C)(C(=O)N[C@@H](CCC(=O)O)C(=O)N[C@@H](CCCNC(=N)N)C(=O)N[C@@H](Cc2c[nH]cn2)C(=O)N[C@@H](C)C(=O)N[C@@H](CCCNC(=N)N)C(=O)N[C@@H](CCC(=O)O)C(=O)N[C@@H](CCCCN)C(N)=O)NC(=O)[C@H](CCC(N)=O)NC(=O)[C@H](Cc2ccccc2)NC(=O)[C@H](CCCNC(=N)N)NC1=O` (stereo partly shown) [A-UBI-SAHN A310-A314, RQIKIWFQNRRMKWKKLKAQADIYKX4RFQX6ERHAREK] (Ac-C(BODIPYFLEthylmaleimide)RQIKIWFQNRRMKWKKLKAQADIYK[S5]RFQ[S5]ERHAREK-NH2; staple 27-31), in data set [1], the “α-helical content at 1° C.” value was 57%. Besides, at CC2-LZ domain of NEMO (peptides with antennapedia, read-out: KD), the Kd was 0.2 µM.

Regarding `CC[C@H](C)[C@@H]1NC(=O)[C@H](CC(=O)O)NC(=O)[C@H](C)NC(=O)[C@H](CCC(N)=O)NC(=O)[C@](C)(NC(=O)[C@H](CCCCN)NC(=O)[C@H](CC(C)C)NC(=O)[C@H](CSC2CC(=O)N(CCNC(=O)CCC3=[N+]4C(=Cc5c(C)cc(C)n5[B-]4(F)F)C=C3)C2=O)NC(C)=O)CCCCCC/C=C\CCC[C@@](C)(C(=O)N[C@@H](CCCNC(=N)N)C(=O)N[C@@H](Cc2ccccc2)C(=O)N[C@@H](CCC(N)=O)C(=O)N[C@@H](C)C(=O)N[C@@H](CCC(=O)O)C(=O)N[C@@H](CCCNC(=N)N)C(=O)N[C@@H](Cc2c[nH]cn2)C(=O)N[C@@H](C)C(=O)N[C@@H](CCCNC(=N)N)C(=O)N[C@@H](CCC(=O)O)C(=O)N[C@@H](CCCCN)C(N)=O)NC(=O)[C@H](CCCCN)NC(=O)[C@H](Cc2ccc(O)cc2)NC1=O` (stereo partly shown) [UBI-SAHN A303-A310 (A)] (Ac-C(BODIPYFLEthylmaleimide)LK[R8]QADIYK[S5]RFQAERHAREK-NH2; staple (Z) 4-11; N-terminus and C-terminus assumed), in data set [1], the “α-helical content at 1° C.” value is reported as “A: 63% -”. Further, the “α-helical content at 1° C.” value in data set [1] (listed as UBI-SAHNA303-A310 (A)) is given as 63%. Moreover, in data set [1] (listed as UBI-SAHNA310-A310 (A)), the “α-helical content at 1° C.” value is recorded as 63%. Further, in data set [2], the ΔS entry was “A: −21 - cal. mol^−1.K^−1”, the Tm entry is reported as “A: 5 - B: C°” and the ΔH result is listed as “A: −5950 - (cal. mol)^−1”. Also, the “Binding affinity (FP) at 10 μM” value on CC2-LZ domain of NEMO is reported as “weak binding”.

As to `CC[C@H](C)[C@H](NC(=O)[C@H](CCCCN)NC(=O)[C@@H](NC(=O)[C@H](CCC(N)=O)NC(=O)[C@H](CCCNC(=N)N)NC(=O)[C@H](CSC1CC(=O)N(CCNC(=O)CCC2=[N+]3C(=Cc4c(C)cc(C)n4[B-]3(F)F)C=C2)C1=O)NC(C)=O)[C@@H](C)CC)C(=O)N[C@@H](Cc1c[nH]c2ccccc12)C(=O)N[C@@H](Cc1ccccc1)C(=O)N[C@@H](CCC(N)=O)C(=O)N[C@@H](CC(N)=O)C(=O)N[C@@H](CCCNC(=N)N)C(=O)N[C@@H](CCCNC(=N)N)C(=O)N[C@@H](CCSC)C(=O)N[C@@H](CCCCN)C(=O)N[C@@H](Cc1c[nH]c2ccccc12)C(=O)N[C@@H](CCCCN)C(=O)N[C@@H](CCCCN)C(=O)N[C@@H](CC(C)C)C(=O)N[C@@H](CCCCN)C(=O)N[C@@H](C)C(=O)N[C@@H](CCC(N)=O)C(=O)N[C@@H](C)C(=O)N[C@]1(C)CCCCCCC=CCCC[C@@](C)(C(=O)N[C@@H](C)C(=O)N[C@@H](CCC(=O)OC)C(=O)N[C@@H](CCCNC(=N)N)C(=O)N[C@@H](Cc2c[nH]cn2)C(=O)N[C@@H](C)C(=O)N[C@@H](CCCNC(=N)N)C(=O)N[C@@H](CCC(=O)OC)C(=O)N[C@@H](CCCCN)C(N)=O)NC(=O)[C@H](Cc2ccccc2)NC(=O)[C@H](CCCNC(=N)N)NC(=O)[C@H](C)NC(=O)[C@H](CCCCN)NC(=O)[C@H](Cc2ccc(O)cc2)NC(=O)[C@H]([C@@H](C)CC)NC1=O` (stereo partly shown) [A-UBI-SAHN D306-Q313 OMe, RQIKIWFQNRRMKWKKLKAQAX2IYKARFX5AX7RHARX9K] (Ac-C(BODIPYFLEthylmaleimide)RQIKIWFQNRRMKWKKLKAQA[R8]IYKARF[S5]AE(OMe)RHARE(OMe)K-NH2; staple 23-30), the Kd on CC2-LZ domain of NEMO (peptides with antennapedia) was determined as 0.06 ± 0.01 µM.
